We go through 13 compounds from patent publication US12617783B2, “Heterocyclic GLP-1R agonists” (BIOMEA FUSION, INC., priority 2024, dated 2026).

Structures are written as SMILES.

The target in the assay is T1, human GLP-1R (Homo sapiens, UniProt P43220).
T1 construct: host or cells: HEK293
T1 sequence (P43220 24-463): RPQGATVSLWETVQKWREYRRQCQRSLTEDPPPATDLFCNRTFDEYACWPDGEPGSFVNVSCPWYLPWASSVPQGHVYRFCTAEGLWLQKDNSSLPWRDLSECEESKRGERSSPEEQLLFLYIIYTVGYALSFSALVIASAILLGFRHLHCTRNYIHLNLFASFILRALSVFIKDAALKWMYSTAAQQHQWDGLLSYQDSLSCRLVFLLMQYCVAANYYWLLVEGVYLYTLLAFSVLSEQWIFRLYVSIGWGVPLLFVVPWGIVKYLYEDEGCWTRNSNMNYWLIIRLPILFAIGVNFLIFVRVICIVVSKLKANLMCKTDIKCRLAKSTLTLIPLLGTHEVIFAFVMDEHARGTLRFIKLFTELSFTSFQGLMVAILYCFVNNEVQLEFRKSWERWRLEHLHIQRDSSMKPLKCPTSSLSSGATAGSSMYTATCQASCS
The assay is described as follows: GLP-1R cAMP assay (Example B1a, HTRF, 30 min at room temperature). In kind it is cell-based. The following applies: cAMP accumulation in HEK293 expressing human GLP-1R, no BETP, 30 min room temperature (Method B1a, compounds ID 1-609), Table 1; read-out: EC50. Put shortly: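 Competitive HTRF read-out of cAMP after 30 min room-temperature stimulation, BETP absent, of human GLP-1R-HEK293 cells (1,000/well) in HEPES buffer with 500 μM IBMX and 0.1% BSA. Activation normalised to GLP-1(7-37) positive control. EC50 from 4-parameter non-linear regression.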
(Changes in cAMP serve as a functional read-out for many G protein-coupled receptors.)
By EC50 is commonly meant the concentration that produces a half-maximal response. In the case of `Cc1cc(-n2nc3c(c2-n2ccn(-c4ccc5c(cnn5C)c4F)c2=O)[C@@H]2CC[C@H](C3)N2C(=O)c2cc3cc(C4CCOCC4)ccc3n2[C@@]2(c3noc(=O)[nH]3)C[C@@H]2C)cc(C)c1F` [Compound 208, 3-((1S,2S)-1-(2-((4S,7R)-3-(3-(4-fluoro-1-methyl-1H-indazol-5-yl)-2-oxo-2,3-dihydro-1H-imidazol-1-yl)-2-(4-fluoro-3,5-dimethylphenyl)-2,4,5,6,7,8-hexahydro-4,7-epiminocyclohepta [c]pyrazole-9-carbonyl)-5-(tetrahydro-2H-pyran-4-yl)-1H-indol-1-yl)-2-methylcyclopropyl)-1,2,4-oxadiazol-5 (4H)-one], the EC50 was found to be 0.182 µM.

On to `Cc1cc(-n2nc3c(c2-n2ccn(-c4ccc5c(cnn5C)c4F)c2=O)[C@@H]2CC[C@H](C3)N2C(=O)c2cc3cc(C4CCOC(C)(C)C4)ncc3n2[C@@]2(c3noc(=O)[nH]3)C[C@@H]2C)cc(C)c1F` (stereo partly drawn) [Compound 209, 3-((1S,2S)-1-(5-(2,2-dimethyltetrahydro-2H-pyran-4-yl)-2-((4S,7R)-3-(3-(4-fluoro-1-methyl-1H-indazol-5-yl)-2-oxo-2,3-dihydro-1H-imidazol-1-yl)-2-(4-fluoro-3,5-dimethylphenyl)-2,4,5,6,7,8-hexahydro-4,7-epiminocyclohepta [c]pyrazole-9-carbonyl)-1H-pyrrolo[2,3-c]pyridin-1-yl)-2-methylcyclopropyl)-1,2,4-oxadiazol-5 (4H)-one], for which the EC50 was determined as 0.117 µM.

For `Cc1cc(-n2nc3c(c2-n2ccn(-c4ccc5c(cnn5C)c4F)c2=O)[C@@H]2CC[C@H](C3)N2C(=O)c2cc3nc(C4CCOC(C)(C)C4)ccc3n2[C@@]2(c3noc(=O)[nH]3)C[C@@H]2C)cc(C)c1F` (stereo partly drawn) [Compound 210, 3-[(1S,2S)-1-[5-(2,2-dimethyltetrahydropyran-4-yl)-2-[(1S,8R)-4-(4-fluoro-3,5-dimethyl-phenyl)-3-[3-(4-fluoro-1-methyl-indazol-5-yl)-2-oxo-imidazol-1-yl]-4,5,11-triazatricyclo[6.2.1.02,6]undeca-2,5-diene-11-carbonyl]pyrrolo[3,2-b]pyridin-1-yl]-2-methyl-cyclopropyl]-4H-1,2,4-oxadiazol-5-one], the EC50 stood at 0.959 µM.

As for `Cc1cc(-n2nc3c(c2-n2ccn(-c4ccc5c(cnn5C)c4F)c2=O)[C@@H]2CC[C@H](C3)N2C(=O)c2cc3cc([C@H]4CCOC(C)(C)C4)ncc3n2[C@@]2(c3noc(=O)[nH]3)C[C@@H]2C)cc(C)c1F` [Compound 211, 3-((1S,2S)-1-(5-((S)-2,2-dimethyltetrahydro-2H-pyran-4-yl)-2-((4S,7R)-3-(3-(4-fluoro-1-methyl-1H-indazol-5-yl)-2-oxo-2,3-dihydro-1H-imidazol-1-yl)-2-(4-fluoro-3,5-dimethylphenyl)-2,4,5,6,7,8-hexahydro-4,7-epiminocyclohepta [c]pyrazole-9-carbonyl)-1H-pyrrolo[2,3-c]pyridin-1-yl)-2-methylcyclopropyl)-1,2,4-oxadiazol-5 (4H)-one], the EC50 is 0.051 µM.

Take `Cc1cc(-n2nc3c(c2-n2ccn(-c4ccc5c(cnn5C)c4F)c2=O)[C@@H]2CC[C@H](C3)N2C(=O)c2cc3cc([C@@H]4CCOC(C)(C)C4)ncc3n2[C@@]2(c3noc(=O)[nH]3)C[C@@H]2C)cc(C)c1F` [Compound 212, 3-((1S,2S)-1-(5-((R)-2,2-dimethyltetrahydro-2H-pyran-4-yl)-2-((4S,7R)-3-(3-(4-fluoro-1-methyl-1H-indazol-5-yl)-2-oxo-2,3-dihydro-1H-imidazol-1-yl)-2-(4-fluoro-3,5-dimethylphenyl)-2,4,5,6,7,8-hexahydro-4,7-epiminocyclohepta [c]pyrazole-9-carbonyl)-1H-pyrrolo[2,3-c]pyridin-1-yl)-2-methylcyclopropyl)-1,2,4-oxadiazol-5 (4H)-one]: the concentration for a half-maximal effect (EC50) came out at 0.697 µM.

In the case of `Cc1cc(-n2nc3c(c2-n2ccn(-c4ccc5c(cnn5C)c4F)c2=O)[C@@H]2CC[C@H](C3)N2C(=O)c2cc3cc(C4CCOC5(CC5)C4)ccc3n2[C@@]2(c3noc(=O)[nH]3)C[C@@H]2C)cc(C)c1F` (stereo partly drawn) [Compound 213, 3-((1S,2S)-1-(2-((4S,7R)-3-(3-(4-fluoro-1-methyl-1H-indazol-5-yl)-2-oxo-2,3-dihydro-1H-imidazol-1-yl)-2-(4-fluoro-3,5-dimethylphenyl)-2,4,5,6,7,8-hexahydro-4,7-epiminocyclohepta [c]pyrazole-9-carbonyl)-5-(4-oxaspiro[2.5]octan-7-yl)-1H-indol-1-yl)-2-methylcyclopropyl)-1,2,4-oxadiazol-5 (4H)-one], the half-maximal effective concentration (EC50) worked out at 0.0812 µM.

Take `Cc1cc(-n2nc3c(c2-n2ccn(-c4ccc5c(cnn5C)c4F)c2=O)[C@@H]2CC[C@H](C3)N2C(=O)c2cc3cc([C@@H]4CCOC5(CC5)C4)ccc3n2[C@@]2(c3noc(=O)[nH]3)C[C@@H]2C)cc(C)c1F` [Compound 215, 3-((1S,2S)-1-(2-((4S,7R)-3-(3-(4-fluoro-1-methyl-1H-indazol-5-yl)-2-oxo-2,3-dihydro-1H-imidazol-1-yl)-2-(4-fluoro-3,5-dimethylphenyl)-2,4,5,6,7,8-hexahydro-4,7-epiminocyclohepta [c]pyrazole-9-carbonyl)-5-((R)-4-oxaspiro[2.5]octan-7-yl)-1H-indol-1-yl)-2-methylcyclopropyl)-1,2,4-oxadiazol-5 (4H)-one]: the EC50 stood at 4.13 µM.

Consider `CCP(=O)(CC)c1ccc(-n2ccn(-c3c4c(nn3-c3cc(C)c(F)c(C)c3)C[C@H]3CC[C@@H]4N3C(=O)c3cc4cc(C5CCOCC5)ccc4n3[C@@]3(c4noc(=O)[nH]4)C[C@@H]3C)c2=O)cc1NC` [Compound 216, 3-[(1S,2S)-1-[2-[(1S,8R)-3-[3-[4-diethylphosphoryl-3-(methylamino)phenyl]-2-oxo-imidazol-1-yl]-4-(4-fluoro-3,5-dimethyl-phenyl)-4,5,11-triazatricyclo[6.2.1.02,6]undeca-2,5-diene-11-carbonyl]-5-tetrahydropyran-4-yl-indol-1-yl]-2-methyl-cyclopropyl]-4H-1,2,4-oxadiazol-5-one], for which the EC50 came to 0.233 µM.

As for `Cc1cc(-n2nc3c(c2-n2ccn(-c4ccc5c(cnn5C)c4F)c2=O)[C@@H]2CC[C@H](C3)N2C(=O)c2cc3nc([C@H]4CCOC(C)(C)C4)ccc3n2[C@@]2(c3noc(=O)[nH]3)C[C@@H]2C)cc(C)c1F` [Compound 217, 3-[(1S,2S)-1-[5-[(4S)-2,2-dimethyltetrahydropyran-4-yl]-2-[(1S,8R)-4-(4-fluoro-3,5-dimethyl-phenyl)-3-[3-(4-fluoro-1-methyl-indazol-5-yl)-2-oxo-imidazol-1-yl]-4,5,11-triazatricyclo[6.2.1.02,6]undeca-2,5-diene-11-carbonyl]pyrrolo[3,2-b]pyridin-1-yl]-2-methyl-cyclopropyl]-4H-1,2,4-oxadiazol-5-one], the EC50 was 0.907 µM.

Consider `Cc1cc(-n2nc3c(c2-n2ccn(-c4ccc5c(cnn5C)c4F)c2=O)[C@@H]2CC[C@H](C3)N2C(=O)c2cc3nc([C@@H]4CCOC(C)(C)C4)ccc3n2[C@@]2(c3noc(=O)[nH]3)C[C@@H]2C)cc(C)c1F` [Compound 218, 3-[(1S,2S)-1-[5-[(4R)-2,2-dimethyltetrahydropyran-4-yl]-2-[(1S,8R)-4-(4-fluoro-3,5-dimethyl-phenyl)-3-[3-(4-fluoro-1-methyl-indazol-5-yl)-2-oxo-imidazol-1-yl]-4,5,11-triazatricyclo[6.2.1.02,6]undeca-2,5-diene-11-carbonyl]pyrrolo[3,2-b]pyridin-1-yl]-2-methyl-cyclopropyl]-4H-1,2,4-oxadiazol-5-one], for which the EC50 is over 10 µM.

Consider `CCc1nccc(-c2ccc3c(c2)cc(C(=O)N2[C@@H]4CC[C@H]2c2c(nn(-c5cc(C)c(F)c(C)c5)c2-n2ccn(-c5ccc6c(cnn6C)c5F)c2=O)C4)n3[C@@]2(c3noc(=O)[nH]3)C[C@@H]2C)c1C` [Compound 219, 3-[(1S,2S)-1-[5-(2-ethyl-3-methyl-4-pyridyl)-2-[(1S,8R)-4-(4-fluoro-3,5-dimethyl-phenyl)-3-[3-(4-fluoro-1-methyl-indazol-5-yl)-2-oxo-imidazol-1-yl]-4,5,11-triazatricyclo[6.2.1.02,6]undeca-2,5-diene-11-carbonyl]indol-1-yl]-2-methyl-cyclopropyl]-4H-1,2,4-oxadiazol-5-one], for which the EC50 stood at 0.269 µM.

For `Cc1cc(-n2nc3c(c2-n2ccn(-c4ccc5c(cnn5C)c4F)c2=O)[C@@H]2COC[C@H](C3)N2C(=O)c2cc3cc(C4CCOC5(CC5)C4)ccc3n2[C@@]2(c3noc(=O)[nH]3)C[C@@H]2C)cc(C)c1F` (stereo partly drawn) [Compound 220, 3-((1S,2S)-1-(2-((4R,8S)-3-(3-(4-fluoro-1-methyl-1H-indazol-5-yl)-2-oxo-2,3-dihydro-1H-imidazol-1-yl)-2-(4-fluoro-3,5-dimethylphenyl)-2,4,5,7,8,9-hexahydro-4,8-epiminooxocino [5,4-c]pyrazole-10-carbonyl)-5-(4-oxaspiro[2.5]octan-7-yl)-1H-indol-1-yl)-2-methylcyclopropyl)-1,2,4-oxadiazol-5 (4H)-one], the EC50 worked out at 0.795 µM.

As for `Cc1cc(-n2nc3c(c2-n2ccn(-c4ccc5c(cnn5C)c4F)c2=O)[C@@H]2COC[C@H](C3)N2C(=O)c2cc3cc(C4CCOCC4)ccc3n2[C@@]2(c3noc(=O)[nH]3)C[C@@H]2C)cc(C)c1F` [Compound 221, 3-((1S,2S)-1-(2-((4R,8S)-3-(3-(4-fluoro-1-methyl-1H-indazol-5-yl)-2-oxo-2,3-dihydro-1H-imidazol-1-yl)-2-(4-fluoro-3,5-dimethylphenyl)-2,4,5,7,8,9-hexahydro-4,8-epiminooxocino [5,4-c]pyrazole-10-carbonyl)-5-(tetrahydro-2H-pyran-4-yl)-1H-indol-1-yl)-2-methylcyclopropyl)-1,2,4-oxadiazol-5 (4H)-one], the EC50 was found to be 0.129 µM.
